According to US20250262161A1, “COMPOSITION, METHOD FOR ITS PREPARATION AND ITS USE FOR INCREASING THE SOLUBILITY OF ACTIVE SUBSTANCES” (Philipps-Universität Marburg, priority 2021, published 2025):

Assay: Solubility of curcumin in water (amount dissolved, UV/Vis measurement)
Type: physicochemical
Conditions: visual yellow colouring of supernatant
Procedure: Curcumin was first incorporated into eggshell flour. Two different methods were used for this purpose. […] Ethanol was evaporated without stirring (HP). […] Ethanol was evaporated with stirring (R). For comparison, curcumin was mixed with eggshell meal (physical mixture=PM) and added to water as a pure substance (bulk). From all samples, the amount of dissolved curcumin was measured. […] The dissolved amount of curcumin was determined at different time points by UV/Vis measurement. […] For method 2, the solubility was approximately 50 times higher.
The physical mixture contained similar amounts.

With `COc1cc(/C=C/C(=O)CC(=O)/C=C/c2ccc(O)c(OC)c2)ccc1O` [pure substance, Curcumin] the “dissolution of curcumin in the water phase (discolouration of aqueous supernatant)” value was “no dissolution of curcumin occurred”.
